The text below walks through data of patent US20200129434A1, “LIPOSOME COMPOSITIONS AND USES THEREOF” (TECHNION RESEARCH & DEVELOPMENT FOUNDATION LIMITED, priority 2017, published 2020).

Data set [1] deals with U87 glioblastoma cells. In words: Survival studies in U87 transferred mice. Format: in vivo, SCID immuno-deficient mice. An excerpt:
(§1) In order to assess the efficacy of the liposome composition in delivering a therapeutic agent to the brain, glioblastoma in a mouse model was employed. Curcumin was integrated into liposomes comprising cholesterol: phosphatidyl phosphoric acid: phosphatidyl choline in molar ratios of 35:7:58. The targeting peptide was present at 0.5% by molar ratio, mol % or weight %, and the curcumin was at a final concentration of 1% by molar ratio, mol % or weight %. The resulting liposomes where lyophilized, hydrated and downsized into a diameter of 0.1 μm±20%.
(§2) These liposomes comprised cholesterol: phosphatidyl phosphoric acid: phosphatidyl choline in molar ratios of 40:5:55. The molar concentration of the drug and targeting peptide were unchanged.
As a model of glioblastoma, SCID immuno-deficient mice were implanted with U87 glioblastoma cells. The U87 cells had previously been transfected with a luciferase gene, such that upon intraperitoneally injection of the mice with luciferin, the cells would fluoresce, allowing for accurate quantification and imaging of the tumor using the IVIS 200 imaging system. The degree of fluorescence measured was proportional to the number of cancer cells, and therefore indicated the cancer growth.
Curcumin and TMZ in targeted liposome carriers, were administered intraperitoneally to the mice 3 days after injection of the tumor cells and for at least 3 weeks. […]

For data set [2], the system named is U87 glioblastoma cells. In words: Tumor growth in the mouse model of glioblastoma, luciferase imaging with IVIS 200. To be noted: 4 mg/kg daily intraperitoneally, FIG. 3A. Format: in vivo, SCID immuno-deficient mice.
Description: as §1, §2
As a model of glioblastoma, SCID immuno-deficient mice were implanted with U87 glioblastoma cells. The U87 cells had previously been transfected with a luciferase gene, such that upon intraperitoneally injection of the mice with luciferin, the cells would fluoresce, allowing for accurate quantification and imaging of the tumor using the IVIS 200 imaging system. The degree of fluorescence measured was proportional to the number of cancer cells, and therefore indicated the cancer growth. […]
By using the luciferase imaging system, quantification of the relative tumor size was possible (FIG. 3). […]

Data set [3] can be described thus: Evaluation of liposome compositions for delivery of curcumin (solubility, drug stability, half-life). Format: physicochemical. Conditions: curcumin loaded in the cholesterol/PA/PC liposome formulation. An excerpt: To test various liposome compositions, the water insoluble drug curcumin was employed as the therapeutic agent to be incorporated into the liposome. Curcumin, has been used for many clinical purposes, including as an antioxidant, antibacterial, anti-inflammatory agent, anti-neurodegenerative processes and anticancer agent. Curcumin however, is highly water-insoluble, has a very short biological half-life, and poor pharmacokinetics. Previous attempts at liposomes for the delivery of curcumin comprised cholesterol (Ch), 1,2-dioleyl-sn-glycero-3-phosphocholine (DOPC), 1,2-dioleyl-sn-glycero-3-phosphoethanolamine (DOPE), and 1,2-dioleoyl-sn-glycero-3-[phosphor-L-serine] (DOPS), usually in equimolar amounts.
Various compositions of liposomes for delivery of curcumin were tested and evaluated for drug loading, drug stability and half-life, and effective targeting in the body. […] The targeting peptide was dissolved in chloroform/methanol and added to the mixture at 0.1-2% by molar ratio, mol % or weight %.
Loading of the drug into the liposome was achieved by pre-dissolving the target drug during the preparation of the liposome, thereby enabling a desired and reproducible concentration of the drug in the most stabilized environment.

The structures appear in SMILES notation. Some results are limits rather than exact numbers.

With `Cn1nnc2c(C(N)=O)ncn2c1=O` [free TMZ, Temozolomide], the “survival time of all mice after tumor cell transfer” value in the data set with U87 glioblastoma cells [1] (daily dosing 4 mg/kg, FIG. 4) is recorded as at most 30 days. The “latency period before tumor growth” value in the data set on U87 glioblastoma cells [2] amounted to 2 weeks.

As for `COc1cc(/C=C/C(=O)CC(=O)/C=C/c2ccc(O)c(OC)c2)ccc1O` [free curcumin, curcumin], in the data set on U87 glioblastoma cells [1] (4 mg drug/kg mouse daily), the “survival compared with control (in words)” value was “survival was not significantly extended”. Also, the “degradation and biological half-life of the drug” value in data set [3] is “protect the drug from degradation and prolong its biological half-life”.
